The record followed here is ChEMBL document CHEMBL1125625, “Antinociceptive (aminoalkyl)indoles” (J Med Chem, 1991).

What all share (assay type): functional
Experiment [1] relates to Mus musculus. Nature of the experiment: Acetylcholine writhing inhibitory activity for the compound was measured in mouse (in vivo) by iv administration at 30 uM.
The subject of experiment [2] is Mus musculus. Kind of experiment: Acetylcholine writhing inhibitory activity measured in vivo in mouse by peroral administration. Conditions: po. A general note: An intraperitoneal irritant provokes the stretching counted in writhing tests.
Experiment [3] has as its system Mus musculus. Kind of experiment: Acetylcholine writhing inhibitory activity was measured in mouse (in vivo) by iv administration.
Experiment [4] deals with Mus musculus. Nature of the experiment: Acetylcholine writhing inhibitory activity for the compound was measured in vivo in mouse by peroral administration at 300 uM.
Experiment [5] concerns Mus musculus. Nature of the experiment: Acetylcholine writhing inhibitory activity for the compound was measured in vivo in mouse by peroral administration at 100 uM.
The subject of experiment [6] is Mus musculus. Nature of the experiment: Acetylcholine writhing inhibitory activity for the compound was measured in vivo in mouse by peroral administration at 20 uM.
Experiment [7] deals with Rattus norvegicus. Nature of the experiment: Intra arterial bradykinin activity for the compound was measured in rat (in vivo) by peroral administration.
Experiment [8] has as its system Rattus norvegicus. Nature of the experiment: Acetic acid writhing inhibitory activity for the compound was measured in rat (in vivo) by peroral administration. Conditions: po.
For experiment [9], the system named is Rattus norvegicus. Nature of the experiment: Randall-Selitto activity for the compound was measured in rat (in vivo) by peroral administration. Conditions: po, read-out: MED.
The test system of experiment [10] is Rattus norvegicus. Kind of experiment: Adjuvant arthritis paw flexion activity for the compound was measured in rat (in vivo) by peroral administration. The note with it: po.
For experiment [11], the system named is Mus musculus. Kind of experiment: Acetylcholine writhing inhibitory activity for the compound was measured in vivo in mouse by peroral administration at 238 uM.
Experiment [12] relates to Mus musculus. Kind of experiment: Acetylcholine writhing inhibitory activity for the compound was measured in mouse (in vivo) by peroral administration at 1000 uM.

Each structure is given as a SMILES string.

Turning to `Cc1c(C(=O)c2csc3ccccc23)c2ccccc2n1CCN1CCOCC1`, in the experiment with Mus musculus [1], the Inhibition is recorded as 60%. On to `Cc1c(C(=O)c2ccccc2F)c2ccccc2n1C(C)C(=O)O` (stereo unspecified), for which the ED50 with Mus musculus [2] turned out to be 12 mg/kg. Take `COc1ccc(C(=O)c2c(C)n(CCCCCCN3CCOCC3)c3ccccc23)cc1`: in the experiment with Mus musculus [2], the ED50 is 28 mg/kg. In the experiment with Mus musculus [3], `C[C@@H](C(=O)O)n1cc(C(=O)c2ccccc2F)c2ccccc21` displayed an ED50 of 38 mg/kg.

As to `Cc1c(C(=O)c2ccccc2F)c2ccccc2n1[C@H](C)CN1CCOCC1`, the 50% effect level in the experiment on Mus musculus [2] (ED50) was put at a dose of 9 mg/kg. In turn, `COc1ccc(C(=O)c2c(C)n(CCN3CCCCC3)c3ccccc23)cc1` gave an Inhibition in the experiment with Mus musculus [4] of 71%.

Turning to `O=C(c1ccccc1)c1ccc2n1CCC2C(=O)O` (stereo unspecified) [KETOROLAC], the 50% effect level in the experiment with Mus musculus [2] (ED50) was put at a dose of 1.1 mg/kg. As for `CC(C(=O)O)n1cc(C(=O)c2ccccc2F)c2ccccc21` (stereo unspecified), it took a dose of 8 mg/kg to reach the 50% effect level in the experiment with Mus musculus [2] (ED50).

Regarding `CCc1c(C(=O)c2ccc(OC)cc2)c2ccccc2n1CCN1CCOCC1`, the ED50 in the experiment on Mus musculus [2] came to 82 mg/kg.

Take `COc1ccc(C(=O)c2c(C)n(CCN(C)C)c3ccccc23)cc1`: it took a dose of 65 mg/kg to reach the 50% effect level in the experiment on Mus musculus [2] (ED50). Consider `Cc1c(C(=O)c2cccc(F)c2)c2ccccc2n1CCN1CCOCC1`, for which the Inhibition in the experiment with Mus musculus [5] is 30%. Regarding `Cc1cccc(C(=O)c2c(C)n(CCN3CCOCC3)c3ccccc23)c1`, in the experiment on Mus musculus [6], the Inhibition stood at 20%.

`CCN(CC)CCn1c(C)c(C(=O)c2ccc(OC)cc2)c2ccccc21`: the ED50 in the experiment with Mus musculus [2] amounted to 50 mg/kg. Regarding `O=C(c1cccc2ccccc12)c1cn(CCN2CCOCC2)c2ccccc12`, the values for the ED50 with Mus musculus [2] and with Mus musculus [3] were 23 mg/kg and 0.12 mg/kg, respectively. With `COc1ccc(C(=O)c2c(C)n(CC(=O)O)c3ccccc23)cc1`, in the experiment on Mus musculus [2], the 50% effect level (ED50) was put at a dose of 173 mg/kg. `COc1ccc(C(=O)c2c(C)n(CCN3CCC(O)CC3)c3ccccc23)cc1`: the ED50 in the experiment with Mus musculus [2] stood at 68 mg/kg.

For `CC(CN1CCOCC1)n1cc(C(=O)c2ccccc2F)c2ccccc21` (stereo unspecified), the 50% effect level with Mus musculus [2] (ED50) was put at a dose of 19 mg/kg. The molecule `CSc1ccc(C(=O)c2c(C)n(CCN3CCOCC3)c3ccccc23)cc1` returned an ED50 in the experiment with Mus musculus [2] of 22 mg/kg. As for `Cc1c(C(=O)c2ccccc2F)c2ccccc2n1CCN1CCOCC1`, the 50% effect level in the experiment on Mus musculus [2] (ED50) was put at a dose of 79 mg/kg. With `Cc1c(C(=O)c2ccccc2F)c2ccccc2n1[C@@H](C)CN1CCOCC1`, in the experiment with Mus musculus [2], the ED50 was determined as 37 mg/kg.

Molecule `CCNCCn1c(C)c(C(=O)c2ccc(OC)cc2)c2ccccc21` registered an ED50 in the experiment with Mus musculus [2] of 46 mg/kg. `COc1ccc(C(=O)c2c(C)n(CCCCN3CCOCC3)c3ccccc23)cc1` returned an ED50 in the experiment on Mus musculus [2] of 56 mg/kg.

As to `COc1ccc(C(=O)c2c(C)n(CCN3CCOCC3)c3ccccc23)cc1` [PRAVADOLINE], the ED50 in the experiment on Rattus norvegicus [7] was 120 mg/kg; in the experiment with Rattus norvegicus [8] it was 15 mg/kg; in the experiment on Mus musculus [2] it was 41 mg/kg; with Rattus norvegicus [10], 100 mg/kg. Moreover, the minimal effective dose with Rattus norvegicus [9] is 1 mg/kg.

`Cc1c(C(=O)c2cccc3ccccc23)c2ccccc2n1CCN1CCOCC1`: the ED50 in the experiment on Rattus norvegicus [7] stood at 52 mg/kg; in the experiment on Rattus norvegicus [8], 38 mg/kg; in the experiment on Rattus norvegicus [10], 30 mg/kg; in the experiment with Mus musculus [3], 0.19 mg/kg. For `Cc1c(C(=O)c2ccc(F)cc2)c2ccccc2n1CCN1CCOCC1`, the Inhibition in the experiment with Mus musculus [11] is 60%. The molecule `Cc1c(C(=O)c2cccc3ccccc23)c2ccccc2n1CCN1CCOC(O)C1` (stereo unspecified) returned an Inhibition in the experiment with Mus musculus [12] of 50%. Moreover, the ED50 in the experiment with Mus musculus [3] is 9.7 mg/kg. As for `C[C@H](CN1CCOCC1)n1cc(C(=O)c2ccccc2F)c2ccccc21`, in the experiment with Mus musculus [2], the ED50 is 11 mg/kg. The same measure, in the same setting: the value for `COc1ccc(C(=O)c2c(C)n(CCN3CCNCC3)c3ccccc23)cc1` was 21 mg/kg; that for `COc1ccc(C(=O)c2c(C)n(CCCCCN3CCOCC3)c3ccccc23)cc1` was 15 mg/kg; that for `C[C@@H](CN1CCOCC1)n1cc(C(=O)c2ccccc2F)c2ccccc21` was 48 mg/kg. Molecule `COc1ccc(C(=O)c2c(C)n(CCN3CCCC(O)C3)c3ccccc23)cc1` (stereo unspecified) showed an ED50 in the experiment with Mus musculus [2] of 26 mg/kg.

In the experiment on Mus musculus [3], `C[C@H](C(=O)O)n1cc(C(=O)c2ccccc2F)c2ccccc21` yielded an ED50 of 5 mg/kg.

For orientation: Inhibition means the relative decrease from the control value, in per cent. A lower Inhibition goes with a response near the control. What is called ED50 is the dose at which the effect has come halfway, by size or by number of responders.
